Measured values as given in PubChem BioAssay AID256 (DTP/NCI, 2004).
Where “and” joins values, the source holds several entries; their conditions need not be identical. Equal entries are not always repeated. Inconclusive results and toxic doses are left out.

Test system: CD2F1 mice, L1210 leukemia ip, survival T/C
Test: NCI In Vivo Anticancer Drug Screen. Data for tumor model L1210 Leukemia (intraperitoneal) in CD2F1 (CDF1) mice
Conditions: higher = longer survival
Method in brief: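 Tumor-bearing mice (transplanted tumor) were split into treated and vehicle control groups, and the measured endpoint of each treated group was divided by that of its vehicle controls.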

[1] = endpoint: mean survival time, dose: 100.0 mg/kg/injection, schedule: Q01DX001 (ip), vehicle: saline with Tween-80
[2] = endpoint: mean survival time, dose: 200.0 mg/kg/injection, schedule: Q01DX001 (ip), vehicle: saline with Tween-80
[3] = endpoint: mean survival time, dose: 100.0 mg/kg/injection, schedule: Q01DX009 (ip), vehicle: saline with Tween-80
[4] = endpoint: mean survival time, dose: 200.0 mg/kg/injection, schedule: Q01DX009 (ip), vehicle: saline with Tween-80
[5] = endpoint: mean survival time, dose: 100.0 mg/kg/injection, schedule: Q04DX003 (ip), vehicle: saline

N=C(N)c1ccc(OCCCOc2ccc(NC(=O)Nc3ccc(S(=O)(=O)F)cc3)cc2)cc1
T/C (endpoint: mean survival time, dose: 50.0 mg/kg/injection, schedule: Q01DX001 (ip), vehicle: saline with Tween-80): 95 % of control
T/C [1]: 89 % of control
T/C [2]: 93 % of control

CC(=O)O.CC(=O)O.O.[Fe]
T/C (endpoint: mean survival time, dose: 100.0 mg/kg/injection, schedule: Q01DX001 (ip), vehicle: saline): 98 % of control
T/C (endpoint: mean survival time, dose: 200.0 mg/kg/injection, schedule: Q01DX001 (ip), vehicle: saline): 96 % of control
T/C (endpoint: mean survival time, dose: 400.0 mg/kg/injection, schedule: Q01DX001 (ip), vehicle: saline): 100 % of control

CN(C)CCNc1ccc(CO)c2sc3ccc(O)cc3c(=O)c12
T/C (endpoint: median survival time, dose: 25.0 mg/kg/injection, schedule: Q01DX005 (ip), vehicle: saline with Tween-80): 107 % of control
T/C (endpoint: median survival time, dose: 72.0 mg/kg/injection, schedule: Q01DX005 (ip), vehicle: saline with Tween-80): 155 % of control
T/C (endpoint: median survival time, dose: 100.0 mg/kg/injection, schedule: Q01DX005 (ip), vehicle: saline with Tween-80): 212 % of control
T/C (endpoint: median survival time, dose: 120.0 mg/kg/injection, schedule: Q01DX005 (ip), vehicle: saline with Tween-80): 183 % of control
T/C (endpoint: median survival time, dose: 333.33 mg/kg/injection, schedule: Q01DX005 (ip), vehicle: saline with Tween-80): 112 % of control
T/C (endpoint: median survival time, dose: 400.0 mg/kg/injection, schedule: Q01DX005 (ip), vehicle: saline with Tween-80): 113 % of control and 97 % of control
T/C (endpoint: median survival time, dose: 555.55 mg/kg/injection, schedule: Q01DX005 (ip), vehicle: saline with Tween-80): 111 % of control

CCCN(CCC)CCCCCCO
T/C (endpoint: mean survival time, dose: 50.0 mg/kg/injection, schedule: Q01DX009 (ip), vehicle: saline with Tween-80): 98 % of control
T/C [3]: 98 % of control
T/C [4]: 97 % of control

COC(=O)/C=C(\C)C(=O)OC
T/C [3]: 100 % of control
T/C [4]: 94 % of control
T/C (endpoint: mean survival time, dose: 400.0 mg/kg/injection, schedule: Q01DX009 (ip), vehicle: saline with Tween-80): 96 % of control

C[N+](C)(C)CCS(=O)(=O)[O-]
T/C [5]: 102 % of control
T/C (endpoint: mean survival time, dose: 200.0 mg/kg/injection, schedule: Q04DX003 (ip), vehicle: saline): 100 % of control
T/C (endpoint: mean survival time, dose: 400.0 mg/kg/injection, schedule: Q04DX003 (ip), vehicle: saline): 100 % of control

CCN(CC)c1cc(Nc2c3ccc(Cl)cc3nc3cc(Cl)ccc23)ccc1O
T/C [3]: 102 % of control
T/C (endpoint: mean survival time, dose: 100.0 mg/kg/injection, schedule: Q04DX003 (ip), vehicle: saline with Tween-80): 97 % of control
T/C [4]: 104 % of control
T/C (endpoint: mean survival time, dose: 200.0 mg/kg/injection, schedule: Q04DX003 (ip), vehicle: saline with Tween-80): 100 % of control
T/C (endpoint: mean survival time, dose: 400.0 mg/kg/injection, schedule: Q04DX003 (ip), vehicle: saline with Tween-80): 117 % of control

CC(C)NC(=S)S
T/C (endpoint: mean survival time, dose: 25.0 mg/kg/injection, schedule: Q01DX009 (ip), vehicle: saline): 100 % of control
T/C (endpoint: mean survival time, dose: 25.0 mg/kg/injection, schedule: Q04DX003 (ip), vehicle: saline): 100 % of control
T/C (endpoint: mean survival time, dose: 50.0 mg/kg/injection, schedule: Q01DX009 (ip), vehicle: saline): 94 % of control
T/C (endpoint: mean survival time, dose: 50.0 mg/kg/injection, schedule: Q04DX003 (ip), vehicle: saline): 105 % of control
T/C (endpoint: mean survival time, dose: 100.0 mg/kg/injection, schedule: Q01DX009 (ip), vehicle: saline): 109 % of control
T/C [5]: 103 % of control

COc1ccccc1N=Nc1c(O)n(-c2ccccc2OC)c(=S)n(-c2ccc(Cl)cc2)c1=O
T/C [1]: 90 % of control
T/C [2]: 93 % of control

O=CC1C(=O)N(c2ccccc2)c2ccccc21 (stereo unspecified)
T/C (endpoint: mean survival time, dose: 50.0 mg/kg/injection, schedule: Q04DX003 (ip), vehicle: Klucel (hydroxypropylcellulose) (HPC)): 98 % of control
T/C (endpoint: mean survival time, dose: 100.0 mg/kg/injection, schedule: Q04DX003 (ip), vehicle: Klucel (hydroxypropylcellulose) (HPC)): 106 % of control
T/C (endpoint: mean survival time, dose: 200.0 mg/kg/injection, schedule: Q04DX003 (ip), vehicle: Klucel (hydroxypropylcellulose) (HPC)): 96 % of control

[CH3][Sn]([CH3])([Cl])[Cl]
T/C (endpoint: mean survival time, dose: 5.0 mg/kg/injection, schedule: Q01DX009 (ip), vehicle: saline): 106 % of control
T/C (endpoint: mean survival time, dose: 10.0 mg/kg/injection, schedule: Q01DX009 (ip), vehicle: saline): 98 % of control
T/C (endpoint: mean survival time, dose: 20.0 mg/kg/injection, schedule: Q01DX009 (ip), vehicle: saline): 95 % of control
